Assay results from ChEMBL document CHEMBL5143718, “Rational Design of a Theranostic Agent Triggered by Endogenous Nitric Oxide in a Cellular Model of Alzheimer's Disease” (J Med Chem, 2022).
The source made the active and inactive calls. The rule behind the calls is not given here.

How the values were obtained:
HT-22 [1] = assay: Cytotoxicity against mouse HT-22 cells assessed as increase in live/dead cells ratio at 5 uM after 48 hrs by Live/dead staining based fluorescence microscopic analysis; assay type: toxicity, cell-based; settings: ht-22, 48 h
[2] = Effective permeability of compound in PBS buffer at pH 7.4 incubated for 18 hrs by PAMPA assay; assay type: ADME; settings: read-out: Peff
BV-2 [3] = assay: Cytotoxicity against mouse BV-2 cells assessed as reduction in cell viability at 1 to 10 uM incubated for 24 hrs by CCK8 assay; assay type: toxicity, cell-based; settings: bv-2, 24 h, dose 1-10 µM
HT-22 [4] = assay: Cytotoxicity against mouse HT-22 cells assessed as reduction in cell viability at < 5 uM incubated for 24 hrs by CCK8 assay; assay type: toxicity, cell-based; settings: ht-22, 24 h
HT-22 [5] = assay: Cytotoxicity against mouse HT-22 cells assessed as reduction in cell viability at higher concentration incubated for 24 hrs by CCK8 assay; assay type: toxicity, cell-based; settings: ht-22, 24 h
HT-22 [6] = assay: Cytotoxicity against mouse HT-22 cells assessed as reduction in cell viability at 5 uM after 24 hrs by CCK8 assay; assay type: toxicity, cell-based; settings: ht-22, 24 h
HT-22 [7] = assay: Cytotoxicity against mouse HT-22 cells assessed as reduction in cell viability at 5 uM after 36 hrs by CCK8 assay; assay type: toxicity, cell-based; settings: ht-22, 36 h
[8] = Cytotoxicity against mouse HT-22 cells assessed as cell viability at 5 uM after 48 hrs by CCK8 assay; assay type: toxicity, cell-based; settings: read-out: Activity
HT-22 [9] = assay: Antioxidant activity in mouse HT-22 cells cocultured with BV-2 cells assessed as reduction in glutamic acid level at 5 uM incubated for 24 hrs; assay type: functional
HT-22 [10] = assay: Antioxidant activity in mouse HT-22 cells cocultured with BV-2 cells assessed as ROS scavenging activity at 5 uM incubated for 48 hrs by DCFH-DA staining based microplate reader analysis; assay type: functional
HT-22 [11] = assay: Antioxidant activity in mouse HT-22 cells cocultured with BV-2 cells assessed as increase in GSH level at 5 uM incubated for 48 hrs by DCFH-DA staining based microplate reader analysis; assay type: functional
HT-22 [12] = assay: Antioxidant activity in mouse HT-22 cells cocultured with BV-2 cells assessed as upregulation of NQO1 mRNA expression at 5 uM after 48 hrs by qRT-PCR analysis; assay type: functional, cell-based
HT-22 [13] = assay: Antioxidant activity in mouse HT-22 cells cocultured with BV-2 cells assessed as upregulation of HO-1 mRNA expression at 5 uM after 48 hrs by qRT-PCR analysis; assay type: functional, cell-based
[14] = Cytotoxicity against mouse HT-22 cells cocultured with BV-2 cells assessed as cell viability at 5 uM after 48 hrs by CCK8 assay (reference value: 5.19 +/- 1.60%); assay type: toxicity, cell-based; settings: read-out: Activity
[15] = Drug uptake in L-arginine stimulated mouse BV-2 cells assessed as increase in fluorescence at 10 uM pretreated with L-arginine and carboxyl-PTIO for 3 hrs followed by compound addition and measured after 3 hrs; assay type: ADME, cell-based
[16] = Drug uptake in mouse BV-2 cells assessed as increase in fluorescence at 10 uM after 3 hrs; assay type: ADME, cell-based; settings: bv-2, 3 h
[17] = Drug uptake in LPS-stimulated mouse BV-2 cells assessed as increase in fluorescence at 10 uM pretreated with LPS and L-NAA for 16 hrs followed by compound addition and measured after 3 hrs; assay type: ADME, cell-based; settings: bv-2, 3 h
[18] = Drug uptake in INFgamma-stimulated mouse BV-2 cells assessed as increase in fluorescence at 10 uM pretreated with INFgamma and L-NAA for 16 hrs followed by compound addition and measured after 3 hrs; assay type: ADME, cell-based; settings: bv-2, 3 h
[19] = Drug uptake in L-arginine stimulated mouse BV-2 cells assessed as increase in fluorescence at 10 uM pretreated with L-arginine and L-NAA for 16 hrs followed by compound addition and measured after 3 hrs; assay type: ADME, cell-based; settings: bv-2, 3 h
[20] = Drug uptake in mouse HT-22 cells cocultured with BV-2 cells assessed as increase in fluorescence at 10 uM after 12 hrs; assay type: ADME, cell-based; settings: ht-22, 12 h
[21] = Drug uptake in LPS-stimulated mouse BV-2 cells assessed as increase in fluorescence at 10 uM pretreated with LPS and carboxyl-PTIO for 3 hrs followed by compound addition and measured after 3 hrs; assay type: ADME, cell-based
[22] = Drug uptake in INFgamma-stimulated mouse BV-2 cells assessed as increase in fluorescence at 10 uM pretreated with INFgamma and carboxyl-PTIO for 3 hrs followed by compound addition and measured after 3 hrs; assay type: ADME, cell-based
HT-22 [23] = assay: Cytotoxicity against mouse HT-22 cells cocultured with BV-2 cells assessed as increase in live/dead cells ratio at 5 uM after 48 hrs by Live/dead staining based fluorescence microscopic analysis; assay type: toxicity, cell-based; settings: ht-22, 48 h
BV-2 [24] = assay: Cytotoxicity against mouse BV-2 cells assessed as reduction in cell viability at 10 uM incubated for 24 hrs by CCK8 assay; assay type: toxicity, cell-based; settings: bv-2, 24 h

Structure (SMILES) | Activity (HT-22 [4]) | Activity (HT-22 [5]) | Activity (HT-22 [6]) | Activity (HT-22 [7]) | viability at 48 h, 5 µM [8] [%] | Activity (HT-22 [9]) | Activity (HT-22 [10]) | Activity (HT-22 [11]) | viability at 48 h, 5 µM [14] [%] | Drug uptake [15] | Drug uptake [16] | Drug uptake [17] | Drug uptake [18] | Drug uptake [19] | Drug uptake [20] | Drug uptake [21] | Drug uptake [22] | Activity (HT-22 [23]) | other results
CC12CC3CC(C)(C1)CC(NCCOCCOCCOCCOc1ccc(N4c5ccccc5N(c5ccccc5)c5c4c4ccccc4c4ccccc54)cc1)(C3)C2 | Non-Toxic | Non-Toxic | Non-Toxic | Non-Toxic | 45.9 | 0.32 | 732 | 103.7 | – | – | – | – | – | – | – | – | – | – | Activity (HT-22 [1]): Non-Toxic; Papp at 18 h [2]: 5.73 ×10⁻⁶ cm/s; Activity (BV-2 [3]): Non-Toxic; Activity (HT-22 [12]): Active; Activity (HT-22 [13]): Active
CC12CC3CC(C)(C1)CC(NCCOCCOCCOCCO)(C3)C2 | – | – | – | – | 20.1 | Active | – | – | – | – | – | – | – | – | – | – | – | – | –
O=C1C=CC(=O)C=C1 [BENZOQUINONE] | – | – | – | – | – | – | – | – | 4.33 | Active | Active | Active | Active | Active | Active | Active | Active | Non-Toxic | –
CC12CC3CC(C)(C1)CC(N)(C3)C2 [MEMANTINE] | Non-Toxic | Non-Toxic | Non-Toxic | Non-Toxic | 13.9 | 0.47 | 586.7 | 91.9 | – | – | – | – | – | – | – | – | – | – | Activity (BV-2 [24]): > 70%
O=C1C(=O)c2ccccc2-c2ccccc21 [9,10-PHENANTHRENEQUINONE] | – | – | – | – | – | – | – | – | 4.46 | Active | Active | Active | Active | Active | Active | Active | Active | Non-Toxic | –
